Assay [1] concerns the target T1, Substance-K receptor (Cavia porcellus) (UniProt Q64077).
T1 sequence (whole entry): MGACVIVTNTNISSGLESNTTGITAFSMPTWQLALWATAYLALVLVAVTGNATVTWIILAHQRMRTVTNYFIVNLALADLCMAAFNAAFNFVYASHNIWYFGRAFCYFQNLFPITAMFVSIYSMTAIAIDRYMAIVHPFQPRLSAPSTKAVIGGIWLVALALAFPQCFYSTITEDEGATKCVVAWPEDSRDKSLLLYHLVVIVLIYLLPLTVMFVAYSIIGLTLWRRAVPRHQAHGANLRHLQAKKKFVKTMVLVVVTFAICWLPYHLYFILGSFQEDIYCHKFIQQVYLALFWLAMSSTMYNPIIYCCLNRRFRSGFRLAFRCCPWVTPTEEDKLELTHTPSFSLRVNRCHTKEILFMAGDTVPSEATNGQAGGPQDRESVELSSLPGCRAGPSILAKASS
Kind of assay: Antagonist Activity of compound (100 nM) at Tachykinin receptor 2 at guinea pig trachea in the presence of P-Ala8-NKA[4-IO] as agonist. The assay is classed as functional.

Assay [2] concerns the target T1, Substance-K receptor (Cavia porcellus). Kind of assay: Antagonist Activity of compound (30 nM) at Tachykinin receptor 2 at guinea pig trachea in the presence of P-Ala8-NKA[4-IO] as agonist. The assay is classed as functional.
A further assay concerns the target T2, Substance-K receptor (Cavia porcellus, UniProt Q64077).
T2 sequence (Q64077 whole entry): T1 sequence (whole entry)
Kind of assay: Compound was evaluated for antagonistic activity towards Tachykinin receptor 2 at guinea pig trachea. The assay is classed as functional, tissue-based. To be noted: read-out: pA2 (converted).

The target of assay [3] is T1, Substance-K receptor (Cavia porcellus). Kind of assay: Antagonist Activity of compound (10 nM) at Tachykinin receptor 2 at guinea pig trachea in the presence of P-Ala8-NKA[4-IO] as agonist. Format: functional.

Structures are written as SMILES.

As for `CSCC[C@@H]1NC(=O)C(CC(C)C)NC(=O)C2CNC(=O)C[C@H](NC1=O)C(=O)N[C@@H](Cc1c[nH]c3ccccc13)C(=O)NC(Cc1ccccc1)C(=O)N2` (single isomer, unassigned), the maximal effect (Emax) (usually the size of the effect at its maximum, as opposed to the concentration needed) in assay [1] is 98%; in assay [2] it was 90%; in assay [3] it was 93%. In addition, the Kb at Substance-K receptor is 23.4 nM.

The values above are taken from ChEMBL document CHEMBL1130872, “Neuronorm is a potent and water soluble neurokinin A receptor antagonist” (Bioorg Med Chem Lett, 1998).
